In patent publication US20250195521A1 (Revolution Medicines, Inc., priority 2020, published 2025):

Tests used:
[1] = tested on: Capan-1 cells (K-Ras G12V); test: CellTiter-Glo cell viability, Capan-1; type: cell-based, human; conditions: Homo sapiens, CAPAN-1, 120 h, K-Ras G12V, 5-day treatment; read-out: Capan-1 Cell Viability IC50
Procedure, shortened: (§1)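 Endpoint: CellTiter-Glo luminescence on day 5, following ~30 min at room temperature. Data as (sample/mean DMSO)×100, four-parameter logistic fit.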

KRAS G12C = KRAS G12C (Homo sapiens (Human), UniProt P01116+P62937, G12C); test: Ras-Raf disruption/FRET/MOA assay (BRAF RBD, Cyclophilin A); type: biochemical; conditions: read-out: KRAS G12C FRET IC50
Procedure, shortened: (§2)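 His6-K-Ras-GMPPNP (12.5 nM), GST-BRAF RBD (50 nM) and tagless Cyclophilin A (25 μM) were combined in 25 mM HEPES pH 7.3 with 100 mM NaCl, 5 mM MgCl2, 0.1% BSA and 0.002% Tween20, with compound as a 10-point 3-fold series from 30 μM final, then incubated 3 h at 25° C.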

KRAS G12D = KRAS G12D (Homo sapiens (Human), UniProt P01116+P62937, G12D); test: as above; type: biochemical; conditions: read-out: KRAS G12D FRET IC50
Procedure, shortened: as §2

KRAS G12S = KRAS G12S (Homo sapiens (Human), UniProt P01116+P62937, G12S); test: as above; type: biochemical; conditions: read-out: KRAS G12S FRET IC50
Procedure, shortened: as §2

KRAS G12V = KRAS G12V (Homo sapiens (Human), UniProt P01116+P62937, G12V); test: as above; type: biochemical; conditions: read-out: KRAS G12V FRET IC50
Procedure, shortened: as §2

KRAS G13C = KRAS G13C (Homo sapiens (Human), UniProt P01116+P62937, G13C); test: as above; type: biochemical; conditions: read-out: KRAS G13C FRET IC50
Procedure, shortened: as §2

KRAS G13D = KRAS G13D (Homo sapiens (Human), UniProt P01116+P62937, G13D); test: as above; type: biochemical; conditions: read-out: KRAS G13D FRET data IC50
Procedure, shortened: as §2

KRAS Q61H = KRAS Q61H (Homo sapiens (Human), UniProt P01116+P62937, Q61H); test: as above; type: biochemical
Procedure, shortened: as §2

KRAS WT = KRAS WT (Homo sapiens (Human), UniProt P01116+P62937); test: as above; type: biochemical; conditions: read-out: KRAS WT FRET data IC50
Procedure, shortened: as §2

NRAS G12C = NRAS G12C (Homo sapiens (Human), UniProt P01111+P62937, G12C); test: as above; type: biochemical; conditions: read-out: NRAS G12C FRET data IC50
Procedure, shortened: (§3)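 Measured: compound-facilitated Cyclophilin A:Ras complex blocking RAF RBD binding. Conditions: 12.5 nM Ras-GMPPNP, 50 nM BRAF RBD, 25 μM CypA, 3 h plus 1.5 h detection. Output: IC50 from TR-FRET ratio.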

NRAS Q61K = NRAS Q61K (Homo sapiens (Human), UniProt P01111+P62937, Q61K); test: as above; type: biochemical
Procedure, shortened: as §3

NRAS Q61R = NRAS Q61R (Homo sapiens (Human), UniProt P01111+P62937, Q61R); test: as above; type: biochemical
Procedure, shortened: as §3

NRAS WT = NRAS WT (Homo sapiens (Human), UniProt P01111+P62937); test: as above; type: biochemical
Procedure, shortened: as §3

[2] = tested on: K-Ras G12C (NCI-H358 cells); test: Potency assay: pERK in NCI-H358 cells; type: cell-based, human; conditions: Homo sapiens; NCI-H358 cells, 4 hours; read-out: pERK EC50 (H358 KRAS G12C)
Procedure, shortened: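 Cells plated the day before were exposed for 4 h at 37° C, 5% CO2 to a 10-point, 3-fold DMSO dilution series (10 mM top stock), in duplicate. Phospho-ERK was read by AlphaLISA SureFire Ultra or by In-Cell Western with DRAQ5 DNA stain, and IC50 came from a 4-parameter sigmoidal fit.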

[3] = tested on: NCI-H358 cells (K-Ras G12C); test: CellTiter-Glo cell viability, NCI-H358; type: cell-based, human; conditions: Homo sapiens, NCI-H358, 120 h, K-Ras G12C, 5-day treatment; read-out: H358 Cell Viability IC50
Procedure, shortened: as §1

Chain of KRAS G12S (P01116 other isoform, or with tags, fused parts or gaps G12S): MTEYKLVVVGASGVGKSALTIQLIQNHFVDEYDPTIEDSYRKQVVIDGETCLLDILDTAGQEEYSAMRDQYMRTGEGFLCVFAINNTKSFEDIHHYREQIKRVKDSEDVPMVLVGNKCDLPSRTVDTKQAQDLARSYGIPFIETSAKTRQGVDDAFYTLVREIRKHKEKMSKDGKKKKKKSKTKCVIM
Chain of KRAS G12S (P62937 whole entry): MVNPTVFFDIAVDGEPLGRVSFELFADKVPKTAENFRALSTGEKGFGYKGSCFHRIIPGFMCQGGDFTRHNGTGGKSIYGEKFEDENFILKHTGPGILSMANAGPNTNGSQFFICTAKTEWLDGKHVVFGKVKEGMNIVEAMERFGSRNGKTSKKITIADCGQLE
Chain of KRAS G12C (P01116-2 other isoform, or with tags, fused parts or gaps G12C): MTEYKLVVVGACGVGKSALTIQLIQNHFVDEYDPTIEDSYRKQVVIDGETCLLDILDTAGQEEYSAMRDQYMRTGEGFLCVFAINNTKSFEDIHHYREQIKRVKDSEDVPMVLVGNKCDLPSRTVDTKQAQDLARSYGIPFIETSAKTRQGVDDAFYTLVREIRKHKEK
Chain of KRAS G12C (P62937 whole entry): as the sequence (P62937 whole entry) above
Chain of KRAS Q61H (P01116 other isoform, or with tags, fused parts or gaps Q61H): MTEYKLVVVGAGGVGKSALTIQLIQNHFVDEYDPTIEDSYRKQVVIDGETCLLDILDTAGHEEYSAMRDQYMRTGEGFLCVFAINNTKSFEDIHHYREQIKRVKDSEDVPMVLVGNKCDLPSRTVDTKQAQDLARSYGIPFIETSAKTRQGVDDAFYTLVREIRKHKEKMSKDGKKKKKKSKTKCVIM
Chain of KRAS Q61H (P62937 whole entry): as the sequence (P62937 whole entry) above
Chain of KRAS G12D (P01116 other isoform, or with tags, fused parts or gaps G12D): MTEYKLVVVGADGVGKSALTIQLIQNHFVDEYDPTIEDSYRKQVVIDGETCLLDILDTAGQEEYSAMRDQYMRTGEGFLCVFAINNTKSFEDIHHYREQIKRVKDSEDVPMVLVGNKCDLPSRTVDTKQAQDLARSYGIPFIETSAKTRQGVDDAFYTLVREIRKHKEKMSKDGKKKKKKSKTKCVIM
Chain of KRAS G12D (P62937 whole entry): as the sequence (P62937 whole entry) above
Chain of KRAS G13D (P01116 other isoform, or with tags, fused parts or gaps G13D): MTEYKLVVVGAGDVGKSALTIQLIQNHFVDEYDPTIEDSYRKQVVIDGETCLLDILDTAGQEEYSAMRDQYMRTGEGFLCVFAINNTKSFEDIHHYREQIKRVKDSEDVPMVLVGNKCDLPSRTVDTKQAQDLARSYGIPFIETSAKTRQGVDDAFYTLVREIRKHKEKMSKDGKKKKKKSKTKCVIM
Chain of KRAS G13D (P62937 whole entry): as the sequence (P62937 whole entry) above
Chain of KRAS G12V (P01116 other isoform, or with tags, fused parts or gaps G12V): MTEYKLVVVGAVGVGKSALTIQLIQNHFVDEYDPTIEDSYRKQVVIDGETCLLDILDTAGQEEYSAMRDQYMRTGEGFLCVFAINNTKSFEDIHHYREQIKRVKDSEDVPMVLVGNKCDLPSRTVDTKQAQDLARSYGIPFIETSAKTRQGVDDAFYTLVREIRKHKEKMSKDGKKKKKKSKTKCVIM
Chain of KRAS G12V (P62937 whole entry): as the sequence (P62937 whole entry) above
Chain of KRAS WT (P01116 other isoform, or with tags, fused parts or gaps): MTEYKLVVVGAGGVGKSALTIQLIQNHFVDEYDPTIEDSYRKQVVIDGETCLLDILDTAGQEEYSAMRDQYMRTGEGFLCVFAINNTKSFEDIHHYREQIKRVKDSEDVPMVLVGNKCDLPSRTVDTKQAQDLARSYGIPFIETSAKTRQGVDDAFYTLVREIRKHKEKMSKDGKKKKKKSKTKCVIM
Chain of KRAS WT (P62937 whole entry): as the sequence (P62937 whole entry) above
Chain of NRAS G12C (P01111 whole entry G12C): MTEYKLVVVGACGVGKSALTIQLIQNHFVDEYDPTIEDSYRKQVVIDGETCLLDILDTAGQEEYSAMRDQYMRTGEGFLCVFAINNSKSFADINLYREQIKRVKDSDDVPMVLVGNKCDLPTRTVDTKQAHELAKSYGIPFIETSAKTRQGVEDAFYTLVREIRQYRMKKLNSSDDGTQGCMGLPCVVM
Chain of NRAS G12C (P62937 whole entry): as the sequence (P62937 whole entry) above
Chain of KRAS G13C (P01116 other isoform, or with tags, fused parts or gaps G13C): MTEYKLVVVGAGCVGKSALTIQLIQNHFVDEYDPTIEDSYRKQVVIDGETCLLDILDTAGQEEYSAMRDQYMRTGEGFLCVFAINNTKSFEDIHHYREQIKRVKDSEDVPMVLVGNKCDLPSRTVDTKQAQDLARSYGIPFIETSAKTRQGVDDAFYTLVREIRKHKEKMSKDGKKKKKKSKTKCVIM
Chain of KRAS G13C (P62937 whole entry): as the sequence (P62937 whole entry) above
Chain of NRAS Q61K (P01111 whole entry Q61K): as the sequence (P01111 whole entry G12C) above, with C12G, Q61K counted along it
Chain of NRAS Q61K (P62937 whole entry): as the sequence (P62937 whole entry) above
Chain of NRAS WT (P01111 whole entry): as the sequence (P01111 whole entry G12C) above, with C12G counted along it
Chain of NRAS WT (P62937 whole entry): as the sequence (P62937 whole entry) above
Chain of NRAS Q61R (P01111 whole entry Q61R): as the sequence (P01111 whole entry G12C) above, with C12G, Q61R counted along it
Chain of NRAS Q61R (P62937 whole entry): as the sequence (P62937 whole entry) above

IC50 (KRAS G12C) [nM]	IC50 (KRAS G12D) [nM]	IC50 (KRAS G12S) [nM]	IC50 (KRAS G12V) [nM]	IC50 (KRAS G13C) [nM]	IC50 (KRAS G13D) [nM]	IC50 (KRAS Q61H) [nM]	IC50 (KRAS WT) [nM]	IC50 (NRAS G12C) [nM]	IC50 (NRAS Q61K) [nM]	IC50 (NRAS Q61R) [nM]	IC50 (NRAS WT) [nM]	EC50 [2] [nM]	IC50 [3] [nM]	Structure (SMILES)	IC50 [1] [nM]
100 to 1000	1000 to 10000	100 to 1000	100 to 1000	100 to 1000	1000 to 10000	10 to 100	100 to 1000	100 to 1000	100 to 1000	100 to 1000	100 to 1000	< 5000	–	CCn1c(-c2cccnc2[C@H](C)OC)c2c3cc(ccc31)-c1csc(n1)C[C@H](NC(=O)[C@H](C(C)C)N(C)C(=O)N1CCOCC13COC3)C(=O)N1CCC[C@H](N1)C(=O)OCC(C)(C)C2 [Compound A474]	10 to 100
100 to 1000	1000 to 10000	100 to 1000	100 to 1000	100 to 1000	100 to 1000	10 to 100	100 to 1000	100 to 1000	100 to 1000	100 to 1000	100 to 1000	–	100 to 1000	CCn1c(-c2cccnc2[C@H](C)OC)c2c3cc(ccc31)-c1csc(n1)C[C@H](NC(=O)[C@H](C(C)C)N(C)C(=O)N1CC[C@@]3(CCNC3=O)C1)C(=O)N1CCC[C@H](N1)C(=O)OCC(C)(C)C2 [Compound A480]	100 to 1000
100 to 1000	1000 to 10000	100 to 1000	100 to 1000	100 to 1000	1000 to 10000	100 to 1000	100 to 1000	100 to 1000	100 to 1000	100 to 1000	100 to 1000	–	10 to 100	CCn1c(-c2cccnc2[C@H](C)OC)c2c3cc(ccc31)-c1csc(n1)C[C@H](NC(=O)[C@H](C(C)C)N(C)C(=O)N1CC3(CCOCC3)C1)C(=O)N1CCC[C@H](N1)C(=O)OCC(C)(C)C2 [Compound A521]	10 to 100

Continued, molecule first:

Structure (SMILES)	IC50 (KRAS G12C) [nM]	IC50 (KRAS G12D) [nM]	IC50 (KRAS G12S) [nM]	IC50 (KRAS G12V) [nM]	IC50 (KRAS G13C) [nM]	IC50 (KRAS G13D) [nM]	IC50 (KRAS Q61H) [nM]	IC50 (KRAS WT) [nM]	IC50 (NRAS G12C) [nM]	IC50 (NRAS Q61K) [nM]	IC50 (NRAS Q61R) [nM]	IC50 (NRAS WT) [nM]	EC50 [2] [nM]	IC50 [3] [nM]	IC50 [1] [nM]
CCn1c(-c2cccnc2[C@H](C)OC)c2c3cc(ccc31)-c1csc(n1)C[C@H](NC(=O)[C@H](C(C)C)N(C)C(=O)N1CC[C@@H]3CN(C)C[C@@H]31)C(=O)N1CCC[C@H](N1)C(=O)OCC(C)(C)C2 [Compound A470]	1000 to 10000	1000 to 10000	1000 to 10000	1000 to 10000	100 to 1000	1000 to 10000	100 to 1000	1000 to 10000	1000 to 10000	1000 to 10000	1000 to 10000	1000 to 10000	< 5000	–	100 to 1000
CCn1c(-c2cc(N3CCN(C)CC3)cnc2[C@H](C)OC)c2c3cc(ccc31)-c1csc(n1)C[C@H](NC(=O)[C@H](C(C)C)N(C)C(=O)[C@@H]1OCC[C@@H]1c1cccnc1)C(=O)N1CCC[C@H](N1)C(=O)OCC(C)(C)C2 [Compound A490]	100 to 1000	1000 to 10000	100 to 1000	100 to 1000	100 to 1000	1000 to 10000	100 to 1000	100 to 1000	100 to 1000	100 to 1000	100 to 1000	100 to 1000	< 5000	–	10 to 100
CCn1c(-c2cccnc2[C@H](C)OC)c2c3cc(ccc31)-c1cc(CF)cc(c1)C[C@H](NC(=O)[C@H](C(C)C)N(C)C(=O)[C@@H]1OCC[C@@H]1c1ccccc1)C(=O)N1CCC[C@H](N1)C(=O)OCC(C)(C)C2 [Compound A509]	10 to 100	100 to 1000	100 to 1000	100 to 1000	10 to 100	100 to 1000	10 to 100	100 to 1000	10 to 100	100 to 1000	100 to 1000	100 to 1000	–	10 to 100	10 to 100
